Data set [1] addresses T1, OCT2 (Homo sapiens, UniProt O15244).
T1 sequence (O15244 1-555): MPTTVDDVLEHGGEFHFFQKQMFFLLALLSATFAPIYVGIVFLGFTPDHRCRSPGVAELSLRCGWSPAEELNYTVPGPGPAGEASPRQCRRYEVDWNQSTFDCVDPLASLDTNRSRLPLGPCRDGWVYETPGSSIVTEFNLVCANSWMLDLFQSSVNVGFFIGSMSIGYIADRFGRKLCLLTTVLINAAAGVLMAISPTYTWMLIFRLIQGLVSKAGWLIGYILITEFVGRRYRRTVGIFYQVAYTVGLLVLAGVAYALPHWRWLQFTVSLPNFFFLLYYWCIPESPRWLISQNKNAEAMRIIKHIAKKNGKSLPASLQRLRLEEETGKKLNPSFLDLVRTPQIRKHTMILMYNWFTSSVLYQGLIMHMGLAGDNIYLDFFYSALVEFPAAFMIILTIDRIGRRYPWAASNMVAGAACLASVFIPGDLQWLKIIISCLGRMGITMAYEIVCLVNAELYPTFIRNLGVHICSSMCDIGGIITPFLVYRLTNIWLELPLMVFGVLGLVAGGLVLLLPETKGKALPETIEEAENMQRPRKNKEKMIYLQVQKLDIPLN
The data set is described as follows: Inhibition of OCT2-mediated oxaliplatin uptake in transfected MDCK-II cells (protein-free HBSS). The following applies: for inhibition at 30 min, 5 μM / inhibition at 30 min, 50 μM / potency estimated from few doses at 30 min: human. The text has this:
Fully confluent MDCK cell monolayers were transfected with either cDNA plasmids encoding the human transporter to be tested or a GFP control. […] The cells were then washed with ice-cold PBS and lysed with 50:50 acetonitrile:H2O. Intracellular content of the substrate was quantified by LC/MS/MS or a MicroBeta radiometric plate reader.

The target in data set [2] is T1, OCT2. The data set is described as follows: Inhibition of OCT2-mediated ASP+ uptake (Kido et al., Giacomini group).
Data set [3] concerns the target T1, OCT2. The following applies: OCT2-mediated uptake; ASP+ 5 μM in HBSS; from Kido Y et al. J Med Chem 2011; cited from earlier work.
In data set [4] the target is T1, OCT2. The data set is described as follows: Inhibition of OCT2-mediated metformin uptake in transfected MDCK-II cells. The following applies: for inhibition at 5 min, 5 μM / inhibition at 5 min, 50 μM: human.
The conditions of data set [5]: cited from earlier work; for Plasma protein binding (%): published data; for Cmax: read-out: Plasma peak total concentration Cmax, published clinical pharmacokinetic data.
Data set [6] is described as follows: Published clinical pharmacokinetic data. The following applies: from published Cmax and protein binding.
In data set [7] the target is T1, OCT2. The data set is described as follows: in vitro.
For data set [8] the following is noted: human, in vivo.
For data set [9] the following is noted: clinical dose; cited from earlier work.
Data set [10] deals with T1, OCT2. The data set is described as follows: Inhibition of OCT2-mediated oxaliplatin transport in 100% human serum or HBSS containing 4% BSA (IC50,app).
[11] abbreviates: human, cell line expressing human OCT2 (cell line not given), probe ASP+ 5 μM.
Setting [12] is: MDCK-II cells transfected with human OCT2, probe oxaliplatin 10 μM.
Where [13] appears, read: IC50 (μM) (substrate Oxaliplatin).

Structures are written as SMILES. Read-outs that look alike come from different tables or passages of the source.

A word on the inhibition: it is the change of the read-out against control, counted positive when it falls. As a reminder, the IC50 is the concentration that inhibits the measured activity by half.

Turning to `OCC(O)COc1ccc(Cl)cc1` (stereo not shown) [Chlorphenesin], in [1], the inhibition at 30 min, 5 μM came out at 14%; the inhibition at 30 min, 50 μM stood at 30%; the potency estimated from few doses at 30 min is 118 µM. Further, in [2] (setting [11]), the potency estimated from few doses was 0.86 µM. Further, the “Inhibition % @ 20 μM (substrate ASP+)” value in data set [3] was 96%.

As for `NC1=NCC2c3ccccc3Cc3ccccc3N12` (stereo not shown) [Epinastine], in data set [1], inhibition was half-maximal at 0.19 µM (IC50); the inhibition at 30 min, 5 μM came out at 96%; the inhibition at 30 min, 50 μM was determined as 100%; the potency estimated from few doses at 30 min was 0.19 µM. Moreover, in data set [4], the IC50 is 3.9 µM; the inhibition at 5 min, 5 μM stood at 56%; the inhibition at 5 min, 50 μM came to 92%. The potency estimated from few doses in [2] (setting [11]) was 0.58 µM. Also, in data set [5], the “Plasma protein binding (%)” value is 64.2% and the Cmax is 120 nM. Moreover, the “Inhibition % @ 20 μM (substrate ASP+)” value in [3] was 97%. Further, the “Plasma peak unbound concentration Cmax,u” value in data set [6] came out at 40 nM.

As for `C=C1C[C@@H]2[C@H](CC[C@]3(C)C(=O)CC[C@@H]23)[C@@]2(C)C=CC(=O)C=C12` [Exemestane], inhibition in [1] was half-maximal at 0.19 µM (IC50). Further, in data set [1] (setting [12]), the inhibition at 30 min, 5 μM was found to be 96%; the inhibition at 30 min, 50 μM turned out to be 102%; the potency estimated from few doses at 30 min is 0.19 µM. For the same compound, the IC50 in data set [4] stood at 2.6 µM. For the same compound, the potency estimated from few doses in data set [2] (setting [11]) was < 0.1 µM. Besides, in [5], the “Plasma protein binding (%)” value was 90% and the Cmax is 91 nM. For the same compound, in [7], the inhibition at 5 min, 5 μM amounted to 66% and the inhibition at 5 min, 50 μM worked out at 94%. For the same compound, the “Inhibition % @ 20 μM (substrate ASP+)” value in [3] was 100%. Besides, in data set [6], the “Plasma peak unbound concentration Cmax,u” value amounted to 10 nM.

As for `Cc1ccc(NC(=O)c2ccc(CN3CCN(C)CC3)cc2)cc1Nc1nccc(-c2cccnc2)n1` [Imatinib], the “fold less potent as inhibitor of OCT2-mediated metformin and oxaliplatin uptake than of ASP+ uptake” value in [1] (comparison of Table 1 potencies) is on record as > 30 fold. In addition, in [1], the inhibition at 30 min, 5 μM was found to be 57% and the inhibition at 30 min, 50 μM was determined as 95%. The potency estimated from few doses at 30 min in data set [1] (setting [13]) was 3.7 µM. Moreover, in [2] (setting [11]), the potency estimated from few doses is < 0.1 µM. Further, the “Inhibition % @ 20 μM (substrate ASP+)” value in data set [3] is 103%.

With `CC(C)[N+]1(C)[C@@H]2CC[C@H]1CC(OC(=O)C(CO)c1ccccc1)C2.[Br-]` (stereo partly shown) [Ipratropium•Br], the “Inhibition % @ 5 μM (substrate Oxaliplatin)” value in [1] (OCT2-mediated uptake, oxaliplatin 10 μM in HBSS, 30 min, inhibitor 5 μM) is 107%. Besides, the “Inhibition % @ 50 μM (substrate Oxaliplatin)” value in [1] (OCT2-mediated uptake, oxaliplatin 10 μM in HBSS, 30 min, inhibitor 50 μM) is listed as 104%. Also, the potency estimated from few doses is < 0.1 µM in data set [1] (read-out: IC50 (μM) (substrate Oxaliplatin), OCT2-mediated uptake, oxaliplatin 10 μM in protein-free HBSS, estimated from single concentration or nonlinear regression) and 0.81 µM in data set [2] (read-out: IC50 (μM) (substrate ASP+), estimated from the inhibition at the single concentration 20 μM). The IC50 is < 0.1 µM in data set [1] (read-out: IC50 or Ki, intrinsic inhibition constant in protein free HBSS, OCT2-mediated oxaliplatin uptake) and 0.32 µM in data set [4] (read-out: IC50 (μM) (substrate Metformin), OCT2-mediated uptake, metformin 10 μM in HBSS, estimated from 50 μM or regression of seven concentrations (±SEM)). In data set [4] (OCT2-mediated uptake, metformin 10 μM in HBSS, 5 min, inhibitor 5 μM), the “Inhibition % @ 5 μM (substrate Metformin)” value was found to be 94%. In [4] (OCT2-mediated uptake, metformin 10 μM in HBSS, 5 min, inhibitor 50 μM), the “Inhibition % @ 50 μM (substrate Metformin)” value was found to be 97%. Also, the “Inhibition % @ 20 μM (substrate ASP+)” value in [3] is listed as 96%.

For the compound `N=C(N)c1ccc(OCCCCCOc2ccc(C(=N)N)cc2)cc1` [Pentamidine], in data set [1], half-maximal inhibition (IC50) was put at 0.067 µM; the inhibition at 30 min, 5 μM was found to be 99%; the inhibition at 30 min, 50 μM was 99%. Also, the potency estimated from few doses at 30 min in [1] (setting [13]) was 0.07 µM. The compound further displayed an IC50 in data set [4] of 2.5 µM. For the same compound, the potency estimated from few doses in [2] (setting [11]) is < 0.1 µM. Also, in [5], the “Plasma protein binding (%)” value is reported as 69% and the Cmax was 730 nM. Further, the “Plasma peak unbound concentration Cmax,u” value in [8] was found to be 230 nM. In data set [7], the inhibition at 5 min, 5 μM came to 67% and the inhibition at 5 min, 50 μM amounted to 91%. For the same compound, in data set [3], the “Inhibition % @ 20 μM (substrate ASP+)” value was 102%. Further, in [9], the “patients with nephrotoxicity at a clinical dose” value is given as ~25%.

Take `CC(C)[N+](C)(CCOC(=O)C1c2ccccc2Oc2ccccc21)C(C)C` [Propantheline•Br]: the IC50 in data set [1] was < 0.1 µM. In data set [1] (setting [13]), the potency estimated from few doses at 30 min was < 0.1 µM. Further, in [1] (setting [12]), the inhibition at 30 min, 5 μM was found to be 103% and the inhibition at 30 min, 50 μM amounted to 102%. The compound also registered an IC50 in data set [4] of 1.7 µM. Also, the potency estimated from few doses in [2] (setting [11]) was < 0.1 µM. Moreover, the IC50 in data set [10] (IC50,app (μM), apparent inhibition constant in 100% human serum or HBSS containing 4% BSA, OCT2-mediated oxaliplatin uptake) is 0.24 µM. In addition, the Cmax in data set [5] was 134 nM. In data set [7], the inhibition at 5 min, 5 μM came to 75% and the inhibition at 5 min, 50 μM stood at 96%. Besides, the “Inhibition % @ 20 μM (substrate ASP+)” value in data set [3] is listed as 107%.

Take `C[N+]1(C)[C@@H]2C[C@@H](OC(=O)C(O)(c3cccs3)c3cccs3)C[C@H]1[C@@H]1O[C@@H]12` [Tiotropium•Br]: in data set [1], inhibition was half-maximal at 0.12 µM (IC50); the inhibition at 30 min, 5 μM came out at 98%; the inhibition at 30 min, 50 μM worked out at 102%; the potency estimated from few doses at 30 min was 0.12 µM. Further, in [4], half-maximal inhibition (IC50) was put at 1.5 µM; the inhibition at 5 min, 5 μM stood at 77%; the inhibition at 5 min, 50 μM amounted to 95%. For the same compound, the IC50 in data set [10] is 1.1 µM. Moreover, in data set [5], the “Plasma protein binding (%)” value is given as 72% and the Cmax was 34 nM. In data set [6], the “Plasma peak unbound concentration Cmax,u” value worked out at 10 nM.

Values taken from patent US11197862B2, “Methods of preventing toxicity of platinum drugs” (XOMICS BIOPHARMA, INC., priority 2015, dated 2021).
